According to US12371454B2, “Cyclic peptide compound having Kras inhibitory action” (priority 2019, dated 2025):
Positions of bridges follow the written chain, without caps; N, C: chain ends. Non-standard residues stand in square brackets, D forms with d. Residues, ends and D or L forms follow the SMILES beside them. *: point of attachment. hPhe(3-Cl-4-CF3) = N[C@@H](CCc1ccc(C(F)(F)F)c(Cl)c1)C(=O)O; 3Oxa8azabicyclo(3.2.1)octane = C1CC2COCC1N2*; NMePhe(4-Me) = CN[C@@H](Cc1ccc(C)cc1)C(=O)O; hPhe(4-Cl) = N[C@@H](CCc1ccc(Cl)cc1)C(=O)O; NMeAla(cPent) = CN[C@@H](CC1CCCC1)C(=O)O; NMeGly(cPent) = CN[C@H](C(=O)O)C1CCCC1; NMeGly(cBu) = CN[C@H](C(=O)O)C1CCC1; NMeCha = CN[C@@H](CC1CCCCC1)C(=O)O; NMehLeu = CN[C@@H](CCC(C)C)C(=O)O; NMeAhp(2) = CCCCC[C@H](NC)C(=O)O; NMeChg = CN[C@H](C(=O)O)C1CCCCC1; NMeD = CN[C@@H](CC(=O)O)C(=O)O; NMeL = CN[C@@H](CC(C)C)C(=O)O; NMeV = CN[C@H](C(=O)O)C(C)C; NMeS = CN[C@@H](CO)C(=O)O; Morpholide = C1CN(*)CCO1; NMeA = CN[C@@H](C)C(=O)O; Piperidide = C1CCN(*)CC1; Pyrrolidide = C1CCN(*)C1; Ac5c = NC1(C(=O)O)CCCC1; Aze = O=C(O)[C@@H]1CCN1; Sar = CNCC(=O)O; Propyl = CCC*

Tests used:
[1] = biological target: T1, Kras and SOS1 (biotin-tagged human Kras loaded with GDP, His-tagged human SOS1) (Homo sapiens, UniProt P01116, G12D); test: Protein-protein interaction inhibition between Kras and SOS1 (KrasGl2D-SOS PPI) using AlphaScreen; assay type: binding; details: AlphaScreen; biotin-tagged human Kras loaded with GDP, His-tagged human SOS1; read-out: KRAS G12D-SOS PPI IC50
T1 construct: made in house; host or cells: E. coli (stated for Kras only)
Method in brief: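 Energy transfer from nickel-chelate donor beads bound to His-SOS1 to streptavidin acceptor beads bound to biotin-Kras, expressed in E. coli and loaded with GDP after purification, was monitored. Donors were excited at 680 nm; singlet oxygen reaching acceptors gave emission read at 520-620 nm.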

[2] = system: Human pancreatic cancer cell line AsPC-1; test: Measurement of AsPC-1 cell growth inhibition (AsPC-1 CGI); assay type: cell-based; details: 96 h
Method in brief: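 AsPC-1 cells in 15% FBS RPMI-1640 were exposed to test compound for 96 hours at 37° C, with CellTiter-Glo as endpoint.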

T1 sequence (P01116 1-188 isoform P01116-2 G12D): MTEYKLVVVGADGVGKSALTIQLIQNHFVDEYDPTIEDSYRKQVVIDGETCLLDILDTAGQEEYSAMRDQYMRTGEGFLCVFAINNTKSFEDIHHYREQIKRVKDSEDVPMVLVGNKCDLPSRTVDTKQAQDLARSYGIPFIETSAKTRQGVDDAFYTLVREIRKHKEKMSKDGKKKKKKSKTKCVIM

| SMILES | IC50 [1] [nM] | IC50 [2] [nM] |
| --- | --- | --- |
| CC[C@H](C)[C@@H]1NC(=O)[C@H](CC(C)C)N(C)C(=O)C[C@@H](C(=O)N2CCCCC2)N(C)C(=O)[C@H](C2CCCC2)N(C)C(=O)C2(CCCC2)NC(=O)[C@@H]2CCCN2C(=O)[C@H](CCc2ccc(C(F)(F)F)c(Cl)c2)NC(=O)CN(C)C(=O)[C@H](Cc2ccc(C)cc2)N(C)C(=O)CN(C)C(=O)CN(C)C1=O [Compound 1850] ([NMeL]I[Sar][Sar][NMePhe(4-Me)][Sar][hPhe(3-Cl-4-CF3)]P[Ac5c][NMeGly(cPent)][NMeD]-Piperidide; lactam N-11) | 0.6 | 20 to 50 |
| CC[C@H](C)[C@@H]1NC(=O)[C@H](CC(C)C)N(C)C(=O)C[C@@H](C(=O)N2C3CCC2COC3)N(C)C(=O)[C@H](C2CCCCC2)N(C)C(=O)C2(CCCC2)NC(=O)[C@@H]2CCCN2C(=O)[C@H](CCc2ccc(Cl)cc2)NC(=O)CN(C)C(=O)[C@H](CC2CCCCC2)N(C)C(=O)CN(C)C(=O)CN(C)C1=O [Compound 1950] ([NMeL]I[Sar][Sar][NMeCha][Sar][hPhe(4-Cl)]P[Ac5c][NMeChg][NMeD]-{3Oxa8azabicyclo(3.2.1)octane}; lactam N-11) | 2.8 | 20 to 50 |
| CCCCC[C@H]1C(=O)N[C@@H]([C@@H](C)CC)C(=O)N(C)CC(=O)N(C)CC(=O)N(C)[C@@H](CC2CCCCC2)C(=O)N(C)CC(=O)N[C@@H](CCc2ccc(C(F)(F)F)c(Cl)c2)C(=O)N2CCC[C@H]2C(=O)NC2(CCCC2)C(=O)N(C)[C@@H](C2CCCCC2)C(=O)N(C)[C@H](C(=O)N2CCCCC2)CC(=O)N1C [Compound 1735] ([NMeAhp(2)]I[Sar][Sar][NMeCha][Sar][hPhe(3-Cl-4-CF3)]P[Ac5c][NMeChg][NMeD]-Piperidide; lactam N-11) | 1.1 | 50 to 100 |
| CC[C@H](C)[C@@H]1NC(=O)[C@H](CC(C)C)N(C)C(=O)C[C@@H](C(=O)N2CCCCC2)N(C)C(=O)[C@H](C2CCCCC2)N(C)C(=O)C2(CCCC2)NC(=O)[C@@H]2CCCN2C(=O)[C@H](CCc2ccc(C(F)(F)F)c(Cl)c2)NC(=O)CN(C)C(=O)[C@H](CCC(C)C)N(C)C(=O)CN(C)C(=O)CN(C)C1=O [Compound 1830] ([NMeL]I[Sar][Sar][NMehLeu][Sar][hPhe(3-Cl-4-CF3)]P[Ac5c][NMeChg][NMeD]-Piperidide; lactam N-11) | 1.6 | 100 to 500 |
| CCCOC[C@H]1C(=O)N(C)CC(=O)N[C@@H](CCc2ccc(C(F)(F)F)c(Cl)c2)C(=O)N2CCC[C@H]2C(=O)NC2(CCCC2)C(=O)N(C)[C@@H](C2CCCCC2)C(=O)N(C)[C@H](C(=O)N2CCCC2)CC(=O)N(C)[C@@H](C2CCC2)C(=O)N[C@@H]([C@@H](C)CC)C(=O)N(C)CC(=O)N(C)CC(=O)N1C [Compound 126] ([NMeGly(cBu)]I[Sar][Sar][NMeS](Propyl)[Sar][hPhe(3-Cl-4-CF3)]P[Ac5c][NMeChg][NMeD]-Pyrrolidide; lactam N-11) | 0.5 | 50 to 100 |
| CC[C@H](C)[C@@H]1NC(=O)[C@H](CC(C)C)N(C)C(=O)C[C@@H](C(=O)N2CCOCC2)N(C)C(=O)[C@H](C(C)C)N(C)C(=O)C2(CCCC2)NC(=O)[C@@H]2CCCN2C(=O)[C@H](CCc2ccc(C(F)(F)F)c(Cl)c2)NC(=O)CN(C)C(=O)[C@H](CC2CCCCC2)N(C)C(=O)[C@@H]2CCN2C(=O)[C@H](C)N(C)C1=O [Compound 1178] ([NMeL]I[NMeA][Aze][NMeCha][Sar][hPhe(3-Cl-4-CF3)]P[Ac5c][NMeV][NMeD]-Morpholide; lactam N-11) | 1 | 50 to 100 |
| CC[C@H](C)[C@@H]1NC(=O)[C@H](CC(C)C)N(C)C(=O)C[C@@H](C(=O)N2CCCCC2)N(C)C(=O)[C@H](C2CCCCC2)N(C)C(=O)C2(CCCC2)NC(=O)[C@@H]2CCCN2C(=O)[C@H](CCc2ccc(C(F)(F)F)c(Cl)c2)NC(=O)CN(C)C(=O)[C@H](CC2CCCC2)N(C)C(=O)CN(C)C(=O)CN(C)C1=O [Compound 1689] ([NMeL]I[Sar][Sar][NMeAla(cPent)][Sar][hPhe(3-Cl-4-CF3)]P[Ac5c][NMeChg][NMeD]-Piperidide; lactam N-11) | 1.1 | 50 to 100 |
